# According to the supplement of paper PMC10307832:
# What was measured:
# Experiment in all cases: relative viability (nuclei count vs DMSO), 5 days (fraction); higher = more cells survive
# NVP-TAE684 + Olaparib = compound: COc1cc(N2CCC(N3CCN(C)CC3)CC2)ccc1Nc1ncc(Cl)c(Nc2ccccc2S(=O)(=O)C(C)C)n1 [NVP-TAE684] + O=C(c1cc(Cc2n[nH]c(=O)c3ccccc23)ccc1F)N1CCN(C(=O)C2CC2)CC1 [Olaparib] (partner 8 µM)
# Summary of the method: (§1)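 Cells from lung cancer lines were seeded into 1536-well plates and, one day later, dosed by pin tool. Treatments were either a single drug or a fixed dose of an anchor drug with five library-drug doses (not always all listed) in √10 steps. After 5 days, nuclei were stained in a one-step fixation (final 0.05% Triton X-100, 1% formaldehyde, 1 ug/ml Hoechst) and counted on 4× images, and relative viability is the treated-to-vehicle nuclei ratio, as the median of duplicate plates.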
# [1] = compound: C1=CC=C2C(=C1)N=C(S2)C(C#N)C3=NC(=NC=C3)NCCC4=CN=CC=C4 + CC(=O)c1c(C)c2cnc(Nc3ccc(N4CCNCC4)cn3)nc2n(C2CCCC2)c1=O [Palbociclib] (partner 0.5 µM)
# Summary of the method: as §1
# CUDC-101 + Luminespib = compound: C#Cc1cccc(Nc2ncnc3cc(OC)c(OCCCCCCC(=O)NO)cc23)c1 [CUDC-101] + CCNC(=O)c1noc(-c2cc(C(C)C)c(O)cc2O)c1-c1ccc(CN2CCOCC2)cc1 [Luminespib] (partner 0.01 µM)
# Summary of the method: as §1
# Vandetanib + Linsitinib = compound: COc1cc2/c(=N/c3ccc(Br)cc3F)nc[nH]c2cc1OCC1CCN(C)CC1 [Vandetanib] + C[C@]1(O)C[C@@H](c2nc(-c3ccc4ccc(-c5ccccc5)nc4c3)c3c(N)nccn32)C1 [Linsitinib] (partner 1 µM)
# Summary of the method: as §1
cell line,measurement,setting,value
UMC-11,relative viability,NVP-TAE684 + Olaparib; first compound 0.2 µM,0.376
same,relative viability,NVP-TAE684 + Olaparib; first compound 0.6325 µM,0.336
same,relative viability,NVP-TAE684 + Olaparib; first compound 2 µM,0.228
same,relative viability,[1]; first compound 0.005 µM,0.377
same,relative viability,[1]; first compound 0.01581 µM,0.32
same,relative viability,[1]; first compound 0.05 µM,0.294
same,relative viability,[1]; first compound 0.1581 µM,0.346
same,relative viability,[1]; first compound 0.5 µM,0.31
same,relative viability,CUDC-101 + Luminespib; first compound 0.01 µM,1.22
same,relative viability,CUDC-101 + Luminespib; first compound 0.03162 µM,0.879
same,relative viability,CUDC-101 + Luminespib; first compound 0.1 µM,1.03
same,relative viability,CUDC-101 + Luminespib; first compound 0.3162 µM,0.43
same,relative viability,CUDC-101 + Luminespib; first compound 1 µM,0.165
same,relative viability,Vandetanib + Linsitinib; first compound 0.02 µM,0.978
same,relative viability,Vandetanib + Linsitinib; first compound 0.06325 µM,0.994
same,relative viability,Vandetanib + Linsitinib; first compound 0.2 µM,0.97
same,relative viability,Vandetanib + Linsitinib; first compound 0.6325 µM,0.885
same,relative viability,Vandetanib + Linsitinib; first compound 2 µM,1
